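Test compounds were applied to cells in 96-well plates for 48 hours at 5 doses. GI50: concentration for 50% inhibition of growth.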 Calls of active or inactive are those of the source. No stated cut-off is given here; in the data, active = GI50 up to about 1.1 µM and inactive = higher.
What was measured:
Experiment in all cases: growth of human tumour cells (NCI), 48 h
[1] = system: OVCAR-4
[2] = system: OVCAR-3
[3] = system: UO-31
[4] = system: IGROV-1
[5] = system: MOLT-4
[6] = system: M14
[7] = system: PC-3
[8] = system: CCRF-CEM
[9] = system: Malme-3M
[10] = system: SNB-19
[11] = system: DU-145
[12] = system: 786-0
[13] = system: T47D
[14] = system: SF-539
[15] = system: HOP-92
[16] = system: SF-295
[17] = system: SK-MEL-28
[18] = system: NCI/ADR-RES
[19] = system: K562
[20] = system: SNB-75

SMILES | GI50 [1] | GI50 [2] | GI50 [3] | GI50 [4] | GI50 [5] | GI50 [6] | GI50 [7] | GI50 [8] | GI50 [9] | GI50 [10] | GI50 [11] | GI50 [12] | GI50 [13] | GI50 [14] | GI50 [15] | GI50 [16] | GI50 [17] | GI50 [18] | GI50 [19] | GI50 [20]
CC(C)(C)O/N=C/c1cc(NC(=S)c2ccccc2)ccc1Cl | 18.3 µM (inactive) | 16.3 µM (inactive) | 12.8 µM (inactive) | 12.1 µM (inactive) | 8.71 µM (inactive) | 18.6 µM (inactive) | 16.4 µM (inactive) | 23 µM (inactive) | 19 µM (inactive) | 22.4 µM (inactive) | 17.3 µM (inactive) | 14.3 µM (inactive) | 18.9 µM (inactive) | 25.7 µM (inactive) | 14.9 µM (inactive) | 18 µM (inactive) | 14 µM (inactive) | 15.6 µM (inactive) |  | 
CCCc1cc(COC)c(C#N)c(O)n1 | > 100 µM (inactive) | > 100 µM (inactive) | > 100 µM (inactive) | > 100 µM (inactive) | > 100 µM (inactive) | > 100 µM (inactive) | > 100 µM (inactive) | > 100 µM (inactive) | > 100 µM (inactive) | > 100 µM (inactive) | > 100 µM (inactive) | > 100 µM (inactive) | > 100 µM (inactive) | 65 µM (inactive) |  | > 100 µM (inactive) | > 100 µM (inactive) | > 100 µM (inactive) | > 100 µM (inactive) | 
COc1ccc2nc(-c3ccc(O)cc3)cc(O)c2c1 | 5.12 µM (inactive) | 0.887 µM (active) | 3.14 µM (inactive) | 3.87 µM (inactive) | 1.41 µM (inactive) | 0.857 µM (active) | 4.78 µM (inactive) | 1.09 µM (active) | 0.459 µM (active) | 3.75 µM (inactive) | 15.7 µM (inactive) | 2.09 µM (inactive) | 4.73 µM (inactive) | 0.826 µM (active) | 0.631 µM (active) | 2.1 µM (inactive) | 1.15 µM (inactive) |  | 0.598 µM (active) | 0.434 µM (active)
CCOC(=O)CCC(NC(=O)c1ccc(Nc2nc3ccccc3nc2C(=O)OCC)cc1)C(=O)OCC (stereo unspecified) | 1.61 µM (inactive) | 2.04 µM (inactive) | 4.28 µM (inactive) | 3.54 µM (inactive) | > 100 µM (inactive) | 8.89 µM (inactive) | 16.9 µM (inactive) | > 100 µM (inactive) | 6.67 µM (inactive) | 3.94 µM (inactive) |  | 1.85 µM (inactive) | 2.18 µM (inactive) | 2.48 µM (inactive) | 3.91 µM (inactive) | 7.71 µM (inactive) | 8.91 µM (inactive) | 5.46 µM (inactive) | > 100 µM (inactive) | 2.36 µM (inactive)
N#CC1C(=O)N(c2ccccc2)NC12OC(=O)c1ccncc12 (stereo unspecified) | > 20 µM (inactive) | > 20 µM (inactive) | > 20 µM (inactive) | > 20 µM (inactive) | > 20 µM (inactive) | > 20 µM (inactive) | > 20 µM (inactive) | > 20 µM (inactive) | > 20 µM (inactive) | > 20 µM (inactive) | > 20 µM (inactive) | > 20 µM (inactive) | > 20 µM (inactive) | > 20 µM (inactive) | > 20 µM (inactive) | > 20 µM (inactive) | > 20 µM (inactive) | > 20 µM (inactive) | > 20 µM (inactive) | 
CCOC(=O)C1=C(C(=O)c2ccc(C)cc2)C(c2cccc([N+](=O)[O-])c2)C(C(=O)c2ccc(C)cc2)=C(C(=O)OCC)N1 | 25.4 µM (inactive) | 15.5 µM (inactive) | 11.4 µM (inactive) | 16.2 µM (inactive) | 28.6 µM (inactive) | 18.1 µM (inactive) | 23.2 µM (inactive) | 5.69 µM (inactive) | 15.1 µM (inactive) | 6.08 µM (inactive) | 16.8 µM (inactive) | 16.2 µM (inactive) | 2.41 µM (inactive) | 12.8 µM (inactive) |  | 16.1 µM (inactive) | 17.8 µM (inactive) | 18.2 µM (inactive) | 7.24 µM (inactive) | 40.9 µM (inactive)
O=C(NCCCNCCNC(=O)c1cc(-c2ccccc2)nc2ccccc12)c1cc(-c2ccccc2)nc2ccccc12 | 2.13 µM (inactive) | 1.97 µM (inactive) | 1.86 µM (inactive) | 1.95 µM (inactive) | 2.09 µM (inactive) | 2.24 µM (inactive) | 1.68 µM (inactive) | 0.783 µM (active) | 1.88 µM (inactive) | 1.87 µM (inactive) |  | 1.79 µM (inactive) | 1.91 µM (inactive) | 1.82 µM (inactive) | 2.12 µM (inactive) | 1.73 µM (inactive) | 1.82 µM (inactive) | 2.05 µM (inactive) | 1.94 µM (inactive) | 1.51 µM (inactive)
CSC1(SC)CCCCCCCCCCC1 | 49.4 µM (inactive) | 27.8 µM (inactive) | 31.3 µM (inactive) | 41.8 µM (inactive) | 33.7 µM (inactive) | 47.5 µM (inactive) | 40.9 µM (inactive) | 22.9 µM (inactive) | 25.5 µM (inactive) | 53.5 µM (inactive) | 55.3 µM (inactive) | 37.1 µM (inactive) | 25 µM (inactive) | > 100 µM (inactive) | 36.8 µM (inactive) | 37.3 µM (inactive) | 44.9 µM (inactive) | 41.2 µM (inactive) | 32 µM (inactive) | 
CCOC(=O)N1CC2(C)C=CC1C(C(=O)OC)C2 (stereo unspecified) | > 100 µM (inactive) | > 100 µM (inactive) | > 100 µM (inactive) | > 100 µM (inactive) | > 100 µM (inactive) | > 100 µM (inactive) | > 100 µM (inactive) | > 100 µM (inactive) | > 100 µM (inactive) | > 100 µM (inactive) | > 100 µM (inactive) | > 100 µM (inactive) | > 100 µM (inactive) |  |  | > 100 µM (inactive) | > 100 µM (inactive) | > 100 µM (inactive) | > 100 µM (inactive) | > 100 µM (inactive)
CN1CN(c2ccccc2)C2(CCN(CCc3csc4ccccc34)CC2)C1=O |  | 12.1 µM (inactive) | 1.8 µM (inactive) | 21.7 µM (inactive) | 10.3 µM (inactive) | 16.7 µM (inactive) | 12 µM (inactive) | 12.3 µM (inactive) | 15 µM (inactive) | 20.2 µM (inactive) | 18.7 µM (inactive) | 14.5 µM (inactive) | 18.3 µM (inactive) | 11 µM (inactive) |  |  | 15.7 µM (inactive) | 13.8 µM (inactive) | 14.8 µM (inactive) | 17.3 µM (inactive)
O=c1c2ccccc2c2c1c1c3ccccc3c(=O)c1c1c3ccccc3c(=O)c21 |  | > 100 µM (inactive) | > 100 µM (inactive) | > 100 µM (inactive) | > 100 µM (inactive) | > 100 µM (inactive) | > 100 µM (inactive) | > 100 µM (inactive) | > 100 µM (inactive) | > 100 µM (inactive) | > 100 µM (inactive) | > 100 µM (inactive) | > 100 µM (inactive) | > 100 µM (inactive) |  | > 100 µM (inactive) | > 100 µM (inactive) | > 100 µM (inactive) | > 100 µM (inactive) | > 100 µM (inactive)
CCOP(=O)(OCC)/C(=C/n1c(=S)[nH]c2ccccc21)C(=O)OC | 45.1 µM (inactive) | 0.0311 µM (active) |  | > 100 µM (inactive) | > 100 µM (inactive) | > 100 µM (inactive) | > 100 µM (inactive) | > 100 µM (inactive) | > 100 µM (inactive) |  | > 100 µM (inactive) | > 100 µM (inactive) | > 100 µM (inactive) | > 100 µM (inactive) |  | > 100 µM (inactive) | > 100 µM (inactive) | > 100 µM (inactive) | > 100 µM (inactive) | 34.4 µM (inactive)
COc1ccc(Nc2nc(N)c(C(=O)c3ccco3)s2)cc1 | > 48.1 µM (inactive) | 20.6 µM (inactive) | 29.3 µM (inactive) | 10.7 µM (inactive) | 3.61 µM (inactive) | 65.2 µM (inactive) | 53.6 µM (inactive) | 5.47 µM (inactive) | > 90.2 µM (inactive) | > 56.5 µM (inactive) | 38.4 µM (inactive) | > 40 µM (inactive) | > 60.5 µM (inactive) | 16.6 µM (inactive) | > 92.7 µM (inactive) | 31.6 µM (inactive) | > 88.7 µM (inactive) | 26.1 µM (inactive) | 4.72 µM (inactive) | 
COC(=O)C(=O)CC(=O)c1cccc(OC)c1 | > 100 µM (inactive) | > 100 µM (inactive) | > 100 µM (inactive) | < 0.01 µM (active) | > 100 µM (inactive) | > 100 µM (inactive) | > 100 µM (inactive) | > 100 µM (inactive) | > 100 µM (inactive) | > 100 µM (inactive) | > 100 µM (inactive) | > 100 µM (inactive) | > 100 µM (inactive) | > 100 µM (inactive) |  | > 100 µM (inactive) | > 100 µM (inactive) | > 100 µM (inactive) | > 100 µM (inactive) | > 100 µM (inactive)
COc1cc(/C=C2/C(=O)N(C(=O)c3ccccc3O)N=C2C)ccc1O | 1.28 µM (inactive) | 0.4 µM (active) | 0.17 µM (active) | 0.123 µM (active) |  | 0.698 µM (active) | 0.802 µM (active) | 0.201 µM (active) | 0.43 µM (active) | 0.123 µM (active) | 0.658 µM (active) | 0.421 µM (active) | 0.404 µM (active) | 0.14 µM (active) | 0.143 µM (active) | 0.214 µM (active) | 34.4 µM (inactive) | 0.596 µM (active) | 0.104 µM (active) | 

Source: ChEMBL document CHEMBL1201862, “PubChem BioAssay data set” (2004)
